We go through four molecules from US9284325B2, “Spectinamides as anti-tuberculosis agents” (UNIVERSITY OF TENNESSEE RESEARCH FOUNDATION, priority 2009, dated 2016).

One data set has as its system M. tuberculosis H37Rv. Nature of the data set: MIC determination by microbroth dilution, anti-tuberculosis activity. It counts as cell-based, Mycobacterium tuberculosis. Particulars: Mycobacterium tuberculosis, H37RV, 168 h; read-out: MIC.
Data set [1] concerns S. aureus 8325 or strain ATCC 29213. The data set can be described thus: MIC determination by microbroth dilution. The data set is classed as cell-based, Staphylococcus aureus. To be noted: Staphylococcus aureus, ATCC29213; S. aureus 8325 or strain ATCC 29213 (for 1471-1544). A general note: In broth dilution the organism is exposed to a series of concentrations in liquid medium.

The subject of data set [2] is Strep. pyogenes ATCC 700294. The data set can be described thus: MIC determination by microbroth dilution. It counts as cell-based, Streptococcus pyogenes. Particulars: Streptococcus pyogenes, ATCC700294, read-out: MIC S. pyogenes.
The test system of data set [3] is Strep. pneumoniae DAW27 or strain R6. Nature of the data set: MIC determination by microbroth dilution. It counts as cell-based, Streptococcus pneumoniae. Particulars: Streptococcus pneumoniae; Strep. pneumoniae DAW27 or strain R6 (for 1443-1544); read-out: MIC S. pneumoniae.
For a further data set, the system named is E. faecalis ATCC 33186. The data set can be described thus: MIC determination by microbroth dilution. It counts as cell-based, Enterococcus faecalis. Particulars: Enterococcus faecalis, ATCC33186.
The test system of a further data set is B. anthracis Sterne 34F2. Nature of the data set: microbe, parasite or virus in culture. The data set is classed as cell-based, Bacillus anthracis. To be noted: Bacillus anthracis, STERNE34F2, read-out: MIC B. anthracis 34F2.
Data set [4] deals with Burkholderia cepacia ATCC 25416. The data set can be described thus: MIC determination by microbroth dilution. The data set is classed as cell-based. To be noted: ATCC25416, read-out: MIC B. cepcia.
Data set [5] relates to Proteus mirabilis ATCC 25933. The data set can be described thus: MIC determination by microbroth dilution. To be noted: ATCC25933. The data set is classed as cell-based.
Data set [6] has as its system Proteus vulgaris ATCC 33420. The data set can be described thus: MIC determination by microbroth dilution. It counts as cell-based. To be noted: ATCC33420.
Data set [7] relates to Klebsiella pneumoniae ATCC 33495. The data set can be described thus: MIC determination by microbroth dilution. The data set is classed as cell-based. Particulars: ATCC33495.
Data set [8] has as its system Acinetobacter baumannii ATCC 19606. Nature of the data set: MIC determination by microbroth dilution. It counts as cell-based. Particulars: ATCC19606.
The test system of the next data set is P. aeruginosa PAO1. Nature of the data set: MIC determination by microbroth dilution. To be noted: Pseudomonas aeruginosa. It counts as cell-based, Pseudomonas aeruginosa.
For data set [9], the system named is Strenotrophomonas maltophilia ATCC 13637. Nature of the data set: MIC determination by microbroth dilution. It counts as cell-based.
The test system of a further data set is E. coli K12. The data set can be described thus: MIC determination by microbroth dilution. It counts as cell-based, Escherichia coli. To be noted: Escherichia coli, K12.
The subject of the next data set is E. coli K12 ΔtolC. The data set can be described thus: microbe, parasite or virus in culture. To be noted: Escherichia coli, read-out: MIC E. coli K12 ΔtolC. It counts as cell-based.
The subject of a further data set is E. coli ribosomes. It counts as biochemical. To be noted: for relative inhibitory activity on luciferase production: tested at 0.66 and 6.6 μM, FIG. 5; for IC50, 50% inhibition of luciferase biosynthesis in S30 assay: E. coli S30 transcription/translation assay.
Another data set deals with Vero epithelial cells. To be noted: African green monkey.
Another data set concerns Borrelia burgdorferi. Particulars: spirochete Borrelia burgdorferi, Criswell et al.; cited from earlier work.
A short description of data set [10]: Cytotoxicity, MTT cell proliferation assay. To be noted: African green monkey, Vero epithelial cells (ATCC CCL-81). For orientation: Tetrazolium dyes change colour on reduction, which living cells bring about.

Values after ≈ are worked out from the molar mass of the structure shown. Structures can show the parent of a compound that is named as a salt.

For the molecule `CN[C@@H]1[C@H](O)[C@H](NC)C2O[C@]3(O)C(OC2[C@H]1O)O[C@H](C)C[C@H]3NC(=O)c1ccco1` (stereo partly drawn) [Compound 1365, 3′-Dihydro-3′-deoxy-4(R)-furan-2-carboxylicamino spectinomycin Dihydrochloride], the MIC in the data set on M. tuberculosis H37Rv is 100 mg/L; in data set [1], more than 200 mg/L; in data set [2], more than 200 mg/L; in [3], more than 200 mg/L; in the data set on E. faecalis ATCC 33186 it was more than 200 mg/L; in the data set with B. anthracis Sterne 34F2 it was more than 200 mg/L. The MIC (in data set [4]; in data set [5]; in data set [6]; in [7]; in data set [8]; in the data set on P. aeruginosa PAO1) was more than 200 mg/L throughout. Further, the MIC in data set [9] was more than 200 mg/L; in the data set with E. coli K12, more than 200 mg/L; in the data set on E. coli K12 ΔtolC, 200 mg/L. Also, the “relative inhibitory activity on luciferase production” value in the data set with E. coli ribosomes is “less active than 1329”.
Take `CN[C@@H]1[C@H](O)[C@H](NC)C2O[C@]3(O)C(OC2[C@H]1O)O[C@H](C)C[C@H]3NC(=O)Cc1ccc(OC)cc1` (stereo partly drawn) [Compound 1446, 3′-Dihydro-3′-deoxy-4(R)-(4-methoxy-phenyl)acetylamino spectinomycin Dihydrochloride]: the MIC with M. tuberculosis H37Rv was 12.5 mg/L; in data set [1], more than 200 mg/L; in data set [2], 6.25 mg/L; in data set [3] it was 6.25 mg/L; in the data set with E. faecalis ATCC 33186, 200 mg/L; in the data set on B. anthracis Sterne 34F2, 100 mg/L. The MIC in data set [4] was more than 200 mg/L; in data set [5], more than 200 mg/L; in data set [6], more than 200 mg/L; in [7] it was 200 mg/L; in data set [8], more than 200 mg/L; against P. aeruginosa PAO1, more than 200 mg/L. The MIC in data set [9] is more than 200 mg/L; in the data set with E. coli K12 it was 200 mg/L; in the data set on E. coli K12 ΔtolC, more than 200 mg/L. The “IC50, 50% inhibition of luciferase biosynthesis in S30 assay” value with E. coli ribosomes stood at 0.68 mg/L.
On to `CN[C@@H]1[C@H](O)[C@H](NC)C2O[C@]3(O)C(OC2[C@H]1O)O[C@H](C)C[C@H]3NCCC(C)C` (stereo partly drawn) [Compound 1420, 3′-Dihydro-3′-deoxy-4(R)-(3-methyl)butylamino spectinomycin Trihydrochloride], for which the MIC in the data set with M. tuberculosis H37Rv was determined as 200 mg/L; in data set [1] it was 100 mg/L; in data set [2], 200 mg/L; in data set [3] it was 100 mg/L; against E. faecalis ATCC 33186, 200 mg/L; with B. anthracis Sterne 34F2, 50 mg/L. In addition, the MIC in [4] is more than 200 mg/L; in [5], more than 200 mg/L; in [6], more than 200 mg/L; in [7], more than 200 mg/L; in data set [8] it was more than 200 mg/L; with P. aeruginosa PAO1, 200 mg/L. The MIC in [9] was found to be 200 mg/L; against E. coli K12 it was 100 mg/L; in the data set on E. coli K12 ΔtolC it was 25 mg/L. In addition, the “relative inhibitory activity on luciferase production” value in the data set with E. coli ribosomes is reported as “inhibited well”.
Take `CN[C@@H]1[C@H](O)[C@H](NC)[C@H]2O[C@@]3(O)C(=O)C[C@@H](C)O[C@H]3O[C@@H]2[C@H]1O` [Spectinomycin, reference compound]: the MIC in the data set on M. tuberculosis H37Rv was 25 mg/L (≈ 75.2 µM); in data set [1], 25 mg/L (≈ 75.2 µM); in data set [2], 25 mg/L (≈ 75.2 µM); in data set [3], 50 mg/L (≈ 150 µM); against E. faecalis ATCC 33186, 50 mg/L (≈ 150 µM); with B. anthracis Sterne 34F2, 25 mg/L (≈ 75.2 µM). The MIC was more than 200 mg/L in data set [4]; more than 200 mg/L in [5]; 50 mg/L (≈ 150 µM) in data set [6]; 50 mg/L (≈ 150 µM) in data set [7]; more than 200 mg/L in data set [8]; 100 mg/L (≈ 301 µM) with P. aeruginosa PAO1. The results for the MIC (in data set [9]; in the data set with E. coli K12; in the data set with E. coli K12 ΔtolC) were more than 200 mg/L, 12.5 to 50 mg/L (≈ 37.6 to 150 µM) and 12.5 mg/L (≈ 37.6 µM), respectively. In addition, the IC50 in the data set with E. coli ribosomes (E. coli S30 system, FIG. 4, read-out: concentration causing 50% reduction in the synthesis of luciferase) was 0.9 µM. Moreover, the “IC50, 50% inhibition of luciferase biosynthesis in S30 assay” value with E. coli ribosomes came out at 0.32 mg/L. For the same molecule, the “therapeutic index (IC50 divided by the MIC)” value in the data set with Vero epithelial cells was determined as 41.5. Moreover, the “frequency at which resistance arises” value with Borrelia burgdorferi is 10^−6. In addition, the IC50 at 72 h in data set [10] was found to be 1030 mg/L (≈ 3100 µM).
